“And” between values parts separate entries of the source, which are not always exact repeats. Equal entries are not always repeated.
System: dopamine release in the rat prefrontal cortex
Assay: Microdialysis: dopamine release in prefrontal cortex after I.P. administration
Format: in vivo
Details: for DOPAMINE in dialysate, MEAN / DOPAMINE in dialysate, individual animals: Citalopram 10 mg/kg I.P.
Experimental: The aim of the study was to evaluate, using microdialysis, the effects of an intraperitoneal (I.P.) administration in rats of three different doses of SON-117 on dopamine and its metabolites, serotonin and its metabolite (5-HIAA), and norepinephrine levels in prefrontal cortex.
Thirty-two adult male Wistar rats were used for the whole study (4 groups of eight animals planned for the study, Table 1).
Surgery was performed on rats weighing about 300 g at the beginning of the experiments. Rats were anaesthetized with Ketamine (50 mg/kg) & Xylazine (15 mg/kg) by intramuscular administration. The animals were placed in a stereotaxic apparatus in the flat-skull position at a constant setting of −3.3 mm between ear bars and the incisor bar. The animals were treated with a local anesthesic (xylocaine 1%, Astra Zeneca) and an analgesic (Temgesic, from Schering Plough, 0.05 mg/kg, s.c.). A rostrocaudal midline incision was made with a lancet to expose the dorsal skull surface. The “stereotaxic zero” was defined by the Bregma in accordance with Paxinos and Watson's atlas (1986). A hole was drilled in the skull with a drill and the meninges were pierced with a sterile needle to implant a CMA12 guide cannula which later received the dialysis probe.
Coordinates used for implanting guide cannula in prefrontal cortex from Bregma were anteroposterior 3.7 mm, mediolateral 0.8 mm, and dorsoventral −2 mm (top of the probe was at −5 mm). The guide cannula was fixed to the skull with two stainless steel screws (1.88 mm outside diameter) anchored. An application of dental cement was added. A plastic collar allowed each animal to be tethered to a Swivel assembly of the CMA 120 awake animal system. Following surgery, rats were kept in individual cages and allowed to recover for a minimum of 3-5 days before the experimentation. The rats were handled and put in plastic bowl for 10 min at least every day to habituate the animals to their new environment for the dialysis. An I.P. administration with saline was also performed every day.
Dialysis probes (CMA12/3 mm, membrane, 20 kD cut-off, Carnegie Medicine, Stockholm, Sweden), were carefully washed before inserting into the guide cannula. The wash was performed with the artificial cerebrospinal fluid (aCSF) medium (NaCl 147 mM, KCl 2.7 mM, CaCl2 1.2 mM, MgCl2 0.85 mM) at room temperature. The dialysis system was then equilibrated at 20° C. at a perfusion rate of 1 μl/min with a Carnegie pump (CMA100). All catheters (FEP tubing, internal volume of 1.2 μl/10 cm, and tubing adaptors) used for microdialysis were treated in the same conditions.
The probes duly prepared were inserted into the guide cannula and the CMA120 Swivel assembly secured to the animal using a plastic collar. Flow through the dialysis probe with aCSF was maintained at a rate of 1 μl/min during the whole experimentation. The first four fractions (corresponding to 2 hours) were discarded to avoid the effects of parenchymal disturbance and to ensure that an approximate steady-state level was reached. Fractions were then collected over a period of 8.5 h during which time the animals remained quiet. The dialysates were automatically collected with an autosampler (microfraction collector CMA 140, Carnegie Medicin) and stored at −80° C. until analysis. […] Perfusion was then maintained for 7 hours with aCSF. The dialysates (30 μl) were collected into 300 μl vials, transferred into dry ice and then kept frozen (−80° C.) until analysis. Frozen samples were shipped to a partner for analysis. At the end of the microdialysis study, a PBS with colored ink was perfused through the probe in order to visualize the dialyzed area.
Catecholamine assay: Concentrations of dopamine, DOPAC, HVA, 5-HIAA, 5-HT, and norepinephrin were determined for each sample by HPLC coupled with electrochemical detection.

Compound: CN(C)CCCC1(c2ccc(F)cc2)OCc2cc(C#N)ccc21 (centres unmarked) [Citalopram, citalopram, reference compound]
- DOPAMINE in dialysate, MEAN (T0-T30 min): 125.10 % of respective basal
- DOPAMINE in dialysate, MEAN (T30-T1 h): 100.99 % of respective basal
- DOPAMINE in dialysate, individual animals (T30-T1 h): 140.37 % of respective basal and 66.54 % of respective basal and 36.31 % of respective basal and 85.24 % of respective basal and 123.31 % of respective basal and 48.94 % of respective basal and 154.56 % of respective basal and 96.98 % of respective basal
- DOPAMINE in dialysate, MEAN (T1 h 30-T2 h): 186.16 % of respective basal
- DOPAMINE in dialysate, individual animals (T1 h 30-T2 h): 866.34 % of respective basal and 87.95 % of respective basal and 112.22 % of respective basal and 92.11 % of respective basal and 107.27 % of respective basal and 89.55 % of respective basal and 53.23 % of respective basal and 51.41 % of respective basal
- DOPAMINE in dialysate, MEAN (T1 h-T1 h 30): 170.05 % of respective basal
- DOPAMINE in dialysate, individual animals (T1 h-T1 h 30): 573.74 % of respective basal and 97.67 % of respective basal and 64.11 % of respective basal and 123.43 % of respective basal and 30.69 % of respective basal and 110.39 % of respective basal and 169.03 % of respective basal and 176.68 % of respective basal
- DOPAMINE in dialysate, MEAN (T2 h 30-T3 h): 108.77 % of respective basal
- DOPAMINE in dialysate, individual animals (T2 h 30-T3 h): 225.14 % of respective basal and 50.88 % of respective basal and 108.16 % of respective basal and 122.69 % of respective basal and 62.34 % of respective basal and 107.84 % of respective basal and 55.41 % of respective basal and 165.66 % of respective basal
- DOPAMINE in dialysate, MEAN (T2 h-T2 h 30): 255.07 % of respective basal
- DOPAMINE in dialysate, individual animals (T2 h-T2 h 30): 1031.09 % of respective basal and 91.06 % of respective basal and 160.05 % of respective basal and 100.78 % of respective basal and 166.56 % of respective basal and 132.77 % of respective basal and 334.66 % of respective basal and 26.69 % of respective basal
- DOPAMINE in dialysate, MEAN (T3 h 30-T4 h): 115.67 % of respective basal
- DOPAMINE in dialysate, individual animals (T3 h 30-T4 h): 243.96 % of respective basal and 23.86 % of respective basal and 113.64 % of respective basal and 73.20 % of respective basal and 174.87 % of respective basal and 59.22 % of respective basal and 97.27 % of respective basal and 119.98 % of respective basal
- DOPAMINE in dialysate, MEAN (T3 h-T3 h 30): 151.97 % of respective basal
- DOPAMINE in dialysate, individual animals (T3 h-T3 h 30): 49.37 % of respective basal and 157.89 % of respective basal and 78.55 % of respective basal and 231.36 % of respective basal and 125.19 % of respective basal and 190.71 % of respective basal and 225.63 % of respective basal
- DOPAMINE in dialysate, MEAN (T4 h 30-T5 h): 103.71 % of respective basal
- DOPAMINE in dialysate, individual animals (T4 h 30-T5 h): 201.72 % of respective basal and 24.62 % of respective basal and 85.39 % of respective basal and 56.71 % of respective basal and 60.52 % of respective basal and 195.94 % of respective basal and 92.15 % of respective basal
- DOPAMINE in dialysate, MEAN (T4 h-T4 h 30): 197.23 % of respective basal
- DOPAMINE in dialysate, individual animals (T4 h-T4 h 30): 337.02 % of respective basal and 36.95 % of respective basal and 127.24 % of respective basal and 110.17 % of respective basal and 45.45 % of respective basal and 94.94 % of respective basal and 255.00 % of respective basal and 192.48 % of respective basal
- DOPAMINE in dialysate, MEAN (T5 h 30-T6 h): 143.61 % of respective basal
- DOPAMINE in dialysate, individual animals (T5 h 30-T6 h): 63.71 % of respective basal and 183.35 % of respective basal and 112.87 % of respective basal and 229.69 % of respective basal and 57.13 % of respective basal and 228.31 % of respective basal and 145.07 % of respective basal
- DOPAMINE in dialysate, MEAN (T5 h-T5 h 30): 151.58 % of respective basal
- DOPAMINE in dialysate, individual animals (T5 h-T5 h 30): 209.25 % of respective basal and 54.45 % of respective basal and 141.19 % of respective basal and 97.47 % of respective basal and 150.97 % of respective basal and 246.92 % of respective basal
- DOPAMINE in dialysate, MEAN (T6 h 30-T7 h): 152.65 % of respective basal
- DOPAMINE in dialysate, individual animals (T6 h 30-T7 h): 300.59 % of respective basal and 88.72 % of respective basal and 128.46 % of respective basal and 71.16 % of respective basal and 147.69 % of respective basal and 77.59 % of respective basal and 325.54 % of respective basal and 82.54 % of respective basal
- DOPAMINE in dialysate, MEAN (T6 h-T6 h 30): 90.10 % of respective basal
- DOPAMINE in dialysate, individual animals (T6 h-T6 h 30): 138.93 % of respective basal and 48.75 % of respective basal and 107.97 % of respective basal and 57.49 % of respective basal and 83.90 % of respective basal and 102.96 % of respective basal and 83.47 % of respective basal and 66.13 % of respective basal
- DOPAMINE in dialysate, MEAN (T-30 min-T0 (pre-dose)): 107.61 % of respective basal
- DOPAMINE in dialysate, MEAN (T-1 h 30-T-1 h (pre-dose)): 77.78 % of respective basal
- DOPAMINE in dialysate, individual animals (T-1 h 30-T-1 h (pre-dose)): 71.31 % of respective basal
- DOPAMINE in dialysate, MEAN (T-1 h-T-30 min (pre-dose)): 98.79 % of respective basal
- dopamine levels, increase (not significant) (citalopram 10 mg/kg I.P., from T1.5 h and 2.5 h): 255%

— patent US20250109127A1, “METHODS OF USE OF PHENOXYPROPYLAMINE COMPOUNDS TO TREAT DEPRESSION” (Minerva Neurosciences, Inc., priority 2013, published 2025)
